Tests used:
mTOR = mTOR (Homo sapiens, UniProt P42345); test: mTOR HTR-FRET Assay; format: biochemical
Description: The following is an example of an assay that can be used to determine the mTOR inhibitory activity of a test compound. Reagents are prepared as follows:
“Simple TOR buffer” (used to dilute high glycerol TOR fraction): 10 mM Tris pH 7.4, 10 mM NaCl, 0.1% Tween-20, 1 mM DTT (from 1M stock frozen at −20° C. just prior to use). For convenience a large quantity of “Simple TOR buffer” w/o DTT can be stored at 4° C. It can be brought to room temperature and DTT added just prior to dilution of TOR fraction.
5XKB/5XMn/5×ATP solution (used to dilute substrate GST-p70S6kin 81 a.a. just prior to use) (40 ml screen quantity shown):
Enzyme solution: Dilute TOR fraction 1:14 in “Simple TOR Buffer”. For current lot that is 640 μg/ml TOR fraction diluted 14× to yield 45.7 μg/ml TOR in buffer (i.e. 7.85 ml TOR pooled fraction+102.1 ml Simple TOR buffer=110 ml 14× diluted TOR fraction). Each Enzyme Lot must be QC'd prior to assay.
Substrate solution: This may be prepared just prior to assay if preferred. Dilute 5.3 mg/ml GST-p70S6kinase fragment stock to 3.5 μg/ml (97 nM) working stock in 5XKB/5XMn/5×ATP solution (i.e. 26.41 μL (5.3 mg/ml) GST-p70S6+40 ml 5XKB/5XMn/5×ATP=40 ml 3.5 μg/ml (97 nM)).
Assay Buffer (for dilution of Antibodies used in Antibody Detection Reagent):
Antibody Detection Reagent (this reagent should be made just prior to addition to Assay Plates):
Using PlateTrak program (Screen) or Matrix Pipettor (SAR), 19.5 μL of diluted TOR fraction is added to assay plate in all test, reference or positive control wells. 19.5 μL of “Simple TOR buffer” is added to all negative control wells. If treating multiple plates with the same compounds, can increase volume of enzyme to multiples of 19.5 μL in a tall 384 well polypropylene plate.
Using EP3, 0.5 μl of test, reference or control DMSO is added to each well with mixing. Plates are incubated for 30 minutes at room temperature.
Using PlateTrak program (Screen) or Matrix Pipettor (SAR) 5 μL of 5XKB/5XMn/5×ATP/5× substrate solution is added to each well of the assay plate to start the reaction. The solutions are mixed well and incubated for 2 hours at room temperature.
Using PlateTrak program (Screen) or Matrix Pipettor (SAR) 5 μL of 60 mM EDTA is added to stop the reaction. The solutions are mixed well and allowed to sit for 15-20 minutes before the next step.
Using PlateTrak program (Screen) or Matrix Pipettor (SAR) 10 μl of Antibody Detection Reagent is added. The solutions are mixes well and incubated for 5 hours to O/N to allow antibodies to form complexes with phosphorylated substrate.
Plates are read on AnalystHT using protocol Multi-Method protocol.

| SMILES | melting point | IC50 (mTOR) [µM] |
| --- | --- | --- |
| COc1ccccc1-n1cnc2c(C(N)=O)nc(-c3cccc(O)c3)nc21 [Compound 39, 2-(3-hydroxyphenyl)-9-(2-methoxyphenyl)-9H-purine-6-carboxamide] | 257 to 259 °C | 10.1 to 20 |
| COc1ccccc1-n1c(=O)[nH]c2c(C(N)=O)nc(C3CCCC3)nc21 [Compound 19, 2-cyclopentyl-9-(2-methoxyphenyl)-8-oxo-8,9-dihydro-7H-purine-6-carboxamide] | 244 to 246 °C | > 30 |
| NC(=O)c1nc(-c2cccc(O)c2)nc2c1[nH]c(=O)n2Cc1ccccc1 [Compound 23, 9-benzyl-2-(3-hydroxyphenyl)-8-oxo-8,9-dihydro-7H-purine-6-carboxamide] | 362 to 366 °C | > 30 |
| COc1ccccc1-n1c(=O)[nH]c2c(C(N)=O)nc(-c3cccc(OC(F)(F)F)c3)nc21 [Compound 34, 9-(2-methoxphenyl)-8-oxo-2-(3-(trifluoromethoxy)phenyl)-8,9-dihydro-7H-purine-6-carboxamide] | 269 to 272 °C | > 30 |
| COc1ccccc1-n1c(=O)[nH]c2c(C(N)=O)nc(-c3cccc(C(F)(F)F)c3)nc21 [Compound 20, 9-(2-methoxyphenyl)-8-oxo-2-(3-(trifluoromethyl)phenyl)-8,9-dihydro-7H-purine-6-carboxamide] | 271 to 275 °C | > 30 |
| NC(=O)c1nc(-c2cccc(O)c2)nc2c1[nH]c(=O)n2-c1ccc(Cl)cc1Cl [Compound 25, 9-(2,4-dichlorophenyl)-2-(3-hydroxyphenyl)-8-oxo-8,9-dihydro-7H-purine-6-carboxamide] | 375 to 377 °C | 5.1 to 10 |
| NC(=O)c1nc(-c2cccc(O)c2)nc2c1[nH]c(=O)n2-c1cccc(F)c1 [Compound 28, 9-(3-fluorophenyl)-2-(3-hydroxyphenyl)-8-oxo-8,9-dihydro-7H-purine-6-carboxamide] | > 375 °C | > 30 |
| NC(=O)c1nc(-c2cccc(O)c2)nc2c1[nH]c(=O)n2-c1ccc(C(F)(F)F)cc1 [Compound 22, 2-(3-hydroxyphenyl)-8-oxo-9-(4-(trifluoromethyl)phenyl)-8,9-dihydro-7H-purine-6-carboxamide] |  | > 30 |
| COc1ccccc1-n1c(=O)[nH]c2c(C(N)=O)nc(-c3cncc(F)c3)nc21 [Compound 30, 2-(5-fluoropyridin-3-yl)-9-(2-methoxyphenyl)-8-oxo-8,9-dihydro-7H-purine-6-carboxamide] |  | 5.1 to 10 |
| COc1ccc(-c2nc(C(N)=O)c3[nH]c(=O)n(-c4ccccc4OC)c3n2)cn1 [Compound 21, 9-(2-methoxyphenyl)-2-(6-methoxypyridin-3-yl)-8-oxo-8,9-dihydro-7H-purine-6-carboxamide] |  | 10.1 to 20 |
| NC(=O)c1nc(-c2cccnc2)nc2c1[nH]c(=O)n2C1CCCCCC1 [Compound 17, 9-cycloheptyl-8-oxo-2-(pyridin-3-yl)-8-9-dihydro-7H-purine-6-carboxamide] |  | 0.1 to 5 |
| COc1ccccc1-n1c(=O)[nH]c2c(C(N)=O)nc(-c3cccc4ncccc34)nc21 [Compound 18, 9-(2-methoxyphenyl)-8-oxo-2-(quinolin-5-yl)-8,9-dihydro-7H-purine-6-carboxamide] | 335 to 337 °C | > 30 |
| NC(=O)c1nc(-c2cccc(O)c2)nc2c1[nH]c(=O)n2-c1ccccc1OC(F)(F)F [Compound 24, 2-(3-hydroxyphenyl)-8-oxo-9-(2-(trifluoromethoxy)phenyl)-8,9-dihydro-7H-purine-6-carboxamide] |  | 5.1 to 10 |
| COc1ccccc1-n1c(=O)[nH]c2c(C(N)=O)nc(-c3ccccc3C(F)(F)F)nc21 [Compound 29, 9-(2-methoxyphenyl)-8-oxo-2-(2-(trifluoromethyl)phenyl)-8,9-dihydro-7H-purine-6-carboxamide] | 237 to 240 °C | > 30 |
| NC(=O)c1nc(-c2cccc(O)c2)nc2c1[nH]c(=O)n2-c1c(F)cccc1F [Compound 16, 9-(2,6-difluorophenyl)-2-(3-hydroxyphenyl)-8-oxo-8,9-dihydro-7H-purine-6-carboxamide] | 355 to 358 °C | 0.1 to 5 |
| COc1ccccc1-n1c(=O)[nH]c2c(C(N)=O)nc(-c3cccc([N+](=O)[O-])c3)nc21 [Compound 26, 9-(2-methoxyphenyl)-2-(3-nitrophenyl)-8-oxo-8,9-dihydro-7H-purine-6-carboxamide] | 295 to 296 °C | > 30 |
| COc1ccccc1-n1c(=O)[nH]c2c(C(N)=O)nc(C3CCN(Cc4ccccc4)CC3)nc21 [Compound 31, 2-(1-benzylpiperidin-4-yl)-9-(2-methoxyphenyl)-8-oxo-8,9-dihydro-7H-purine-6-carboxamide] |  | > 30 |

Next, values leading:

| melting point | IC50 (mTOR) [µM] | SMILES |
| --- | --- | --- |
| 280 °C |  | COc1ccccc1-n1c(=O)[nH]c2c(C(N)=O)nc(-c3cccc4[nH]ncc34)nc21 [Compound 128, 2-(1H-Indazol-4-yl)-9-(2-methoxyphenyl)-8-oxo-8,9-dihydro-7H-purine-6-carboxamide] |
| 318 to 320 °C |  | COc1ccccc1-n1c(=O)[nH]c2c(C(N)=O)nc(-c3ccncc3)nc21 [Compound 75, 9-(2-Methoxyphenyl)-8-oxo-2-(pyridin-4-yl)-8,9-dihydro-7H-purine-6-carboxamide] |
| 320 °C (dec.) |  | CC(C)c1ccccc1-n1c(=O)[nH]c2c(C(N)=O)nc(-c3cnc4nc[nH]c4c3)nc21 [Compound 135, 2-(1H-Imidazo[4,5-b]pyridin-6-yl)-9-(2-isopropylphenyl)-8-oxo-8,9-dihydro-7H-purine-6-carboxamide] |
| 363 to 365 °C |  | NC(=O)c1nc(-c2cccc(O)c2)nc2c1[nH]c(=O)n2-c1ccccc1C(F)(F)F [Compound 58, 2-(3-Hydroxyphenyl)-8-oxo-9-(2-(trifluoromethyl)phenyl)-8,9-dihydro-7H-purine-6-carboxamide] |
| > 260 °C |  | COc1cccc(-n2c(=O)[nH]c3c(C(N)=O)nc(-c4cccc(O)c4)nc32)c1F [Compound 148, 9-(2-Fluoro-3-methoxyphenyl)-2-(3-hydroxyphenyl)-8-oxo-8,9-dihydro-7H-purine-6-carboxamide] |
| 331 to 333 °C |  | NC(=O)c1nc(-c2cccnc2)nc2c1[nH]c(=O)n2[C@H]1CC[C@H](O)CC1 [Compound 48, 9-(trans-4-Hydroxycyclohexyl)-8-oxo-2-(pyridin-3-yl)-8,9-dihydro-7H-purine-6-carboxamide] |
| 354 to 356 °C |  | NC(=O)c1nc(-c2cccc(O)c2)nc2c1[nH]c(=O)n2[C@H]1CCOC1 [Compound 163, (S)-2-(3-Hydroxyphenyl)-8-oxo-9-(tetrahydrofuran-3-yl)-8,9-dihydro-7H-purine-6-carboxamide] |
| 373 to 375 °C |  | NC(=O)c1nc(-c2cccc(O)c2)nc2c1[nH]c(=O)n2[C@H]1CC[C@H](O)CC1 [Compound 49, 9-(trans-4-Hydroxycyclohexyl)-2-(3-hydroxyphenyl)-8-oxo-8,9-dihydro-7H-purine-6-carboxamide] |

From patent US7968556B2, “Heteroaryl compounds, compositions thereof, and methods of treatment therewith” (Signal Pharmaceuticals, LLC, priority 2006, dated 2011)
